Data reported in US20060083830A1, “Polylysine-containing food additive and acidic adjuvant” (priority 2004, published 2006).
Where “and” joins values, the source holds several entries; their conditions need not be identical. Identical values can stand only once.

Legend:
Listeria monocytogenes [1] = experiment: Listeria monocytogenes on boiled dumpling sheets with ε-polylysine in the dough, vacuum sealed, 10° C., CFU determination; settings: for Log Reduction: vs control Group A
[2] = rats, two generations; Neda et al., 1999; cited from earlier work
Listeria monocytogenes [3] = experiment: L. monocytogenes on cooked ground turkey balls blended with ε-polylysine, with or without 5 second acidic adjuvant spray, incubated at 8° C., CFU determination; type: cell-based; settings: for Log Reduction: vs control
Method: Four groups of 20 g ground uncooked turkey balls were prepared, with 54 balls prepared per group. […] Groups B-D were blended with varying amounts of ε-polylysine (“ε-PL”). Final concentrations of ε-polylysine within the turkey balls were:
After preparation, all meatballs were placed on baking sheets and baked in a conventional oven at 350° F. for 20 minutes. After baking, the meatballs were packaged separately and stored at 4° C.
The mixture was further diluted 1:5000 times with sterile saline to produce a suspension for use. […] 20 microliters of the Listeria monocytogenes suspension was inoculated onto the exterior of each turkey ball. The turkey balls were incubated at room temperature for 30 min post-inoculation to allow bacteria to attach.
Each group of meatballs (54 per group) was divided into two groups of 27 meatballs and labeled as control or treated meatballs as follows: AC, AT, BC, BT, CC, CT, DC and DT, respectively. Control meatballs labeled AC, BC, CC, and DC were sprayed for 5 seconds with sterile water. Treated meatballs labeled AT, BT, CT and DT were sprayed for 5 seconds with the acidic adjuvant prepared in Example 4 above (Safe2O®brandRTE 01, Mionix Corporation, Rocklin, Calif.) diluted 2 parts water to 1 part solution, having a final pH of about 1.5. After the spray treatment, the meatballs were packaged individually, vacuum sealed and incubated at 8° C.
The microbiological assay was performed after 24 hours, 1 week, 2 weeks, 3 weeks, and 4 weeks. After each designated time period had passed, three bags from each group of meat balls were unpacked, transferred to a stomacher bag along with 20 ml of sterile 0.1% peptone water. Each meatball was hand crushed and stomached at high speed for 2 minutes.

many bacteria = settings: Shima et al., 1984; Hiraki, 2000; cited from earlier work

## poly(imino(2-amino-1-oxo-1,6-hexanediyl)) [ε-PL]
Listeria monocytogenes [1]; 1000 ppm ε-PL, after 1 hour
  CFU/dumpling: 3.80E+02 CFU/dumpling and 4.00E+02 CFU/dumpling and 2.00E+02 CFU/dumpling
  average Log Value: 2.15
  average of CFU/dumpling: 3.27E+02 CFU/dumpling
  Log Reduction: 0.89
Listeria monocytogenes [1]; 1000 ppm ε-PL, after 24 hours
  average Log Value: 2.32
  average of CFU/dumpling: 2.10E+02 CFU/dumpling
  Log Reduction: 2.42
Listeria monocytogenes [1]; 2000 ppm and above, limits of detection 10 CFU/piece
  post-lethality effect: killed the Listeria down to the limits of detection
Listeria monocytogenes [1]; 2000 ppm ε-PL, after 1 hour
  CFU/dumpling: <1.00E+01 CFU/dumpling
  average Log Value: <1.00
  average of CFU/dumpling: <1.00E+01 CFU/dumpling
  Log Reduction: >2.41
Listeria monocytogenes [1]; 2000 ppm ε-PL, after 24 hours
  CFU/dumpling: <1.00E+01 CFU/dumpling
  average Log Value: <1.00
  average of CFU/dumpling: <1.00E+01 CFU/dumpling
  Log Reduction: >3.74
Listeria monocytogenes [1]; 3000 ppm ε-PL, after 1 hour
  CFU/dumpling: <1.00E+01 CFU/dumpling
  average Log Value: <1.00
  average of CFU/dumpling: <1.00E+01 CFU/dumpling
  Log Reduction: >2.41
Listeria monocytogenes [1]; 3000 ppm ε-PL, after 24 hours
  CFU/dumpling: <1.00E+01 CFU/dumpling
  average Log Value: <1.00
  average of CFU/dumpling: <1.00E+01 CFU/dumpling
  Log Reduction: >3.74
Listeria monocytogenes [1]; final concentration of 1000-3000 ppm in flour portion of dumpling
  replication of Listeria monocytogenes: completely suppressed replication of Listeria monocytogenes
[2]
  safety as a food additive: no adverse reproductive toxological effects
Listeria monocytogenes [3]; 1000 ppm ε-PL, after 1 week
  average Log Value: 5.38
  average of CFU/g: 2.41E+05 CFU/g
  Log Reduction: 2.99
Listeria monocytogenes [3]; 1000 ppm ε-PL, after 2 weeks
  average Log Value: 4.76
  average of CFU/g: 5.72E+04 CFU/g
  Log Reduction: 4.09
Listeria monocytogenes [3]; 1000 ppm ε-PL, after 3 weeks
  average Log Value: 5.94
  average of CFU/g: 8.75E+05 CFU/g
Listeria monocytogenes [3]; 1000 ppm ε-PL, after 4 weeks
  average Log Value: 6.67
  average of CFU/g: 4.64E+06 CFU/g
  Log Reduction: 1.91
Listeria monocytogenes [3]; 1000 ppm ε-PL, after 24 hours
  average Log Value: 2.22
  average of CFU/g: 1.67E+02 CFU/g
  Log Reduction: 1.48
Listeria monocytogenes [3]; 2000 ppm ε-PL, after 1 week
  average Log Value: 1.40
  average of CFU/g: 2.53E+01 CFU/g
  Log Reduction: 6.97
Listeria monocytogenes [3]; 2000 ppm ε-PL, after 2 weeks
  average Log Value: 4.27
  average of CFU/g: 1.88E+04 CFU/g
  Log Reduction: 4.57
Listeria monocytogenes [3]; 2000 ppm ε-PL, after 3 weeks
  average Log Value: 2.95
  average of CFU/g: 8.96E+02 CFU/g
  Log Reduction: 5.33
Listeria monocytogenes [3]; 2000 ppm ε-PL, after 4 weeks
  average Log Value: 3.86
  average of CFU/g: 7.18E+03 CFU/g
  Log Reduction: 4.72
Listeria monocytogenes [3]; 2000 ppm ε-PL, after 24 hours
  average Log Value: 1.36
  average of CFU/g: 2.27E+01 CFU/g
  Log Reduction: 2.35
Listeria monocytogenes [3]; 3000 ppm ε-PL, after 1 week
  average Log Value: <0.94
  average of CFU/g: <8.67E+00 CFU/g
  Log Reduction: >7.43
Listeria monocytogenes [3]; 3000 ppm ε-PL, after 2 weeks
  average Log Value: <2.21
  average of CFU/g: <1.61E+02 CFU/g
  Log Reduction: <6.64
Listeria monocytogenes [3]; 3000 ppm ε-PL, after 3 weeks
  CFU/g: <2.00E+00 CFU/g
  average Log Value: <0.30
  average of CFU/g: <2.00E+00 CFU/g
  Log Reduction: <7.98
Listeria monocytogenes [3]; 3000 ppm ε-PL, after 4 weeks
  average Log Value: >3.56
  average of CFU/g: >3.61E+03 CFU/g
  Log Reduction: <5.02
Listeria monocytogenes [3]; 3000 ppm ε-PL, after 24 hours
  CFU/g: 1.40E+01 CFU/g and 1.60E+01 CFU/g and 1.00E+01 CFU/g
  average Log Value: 1.12
  average of CFU/g: 1.33E+01 CFU/g
  Log Reduction: 2.58
Listeria monocytogenes [3]; Tables 2.1-2.5
  controlling the outgrowth of Listeria, ε-PL alone vs secondary acidic adjuvant spray for 5 sec: more effective in controlling the outgrowth of Listeria than the effect of a secondary spray application of the acidic adjuvant
Many bacteria
  minimum inhibitory concentration (MIC) for the growth of many bacteria: below 100 μg mL^−1
